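48-hour exposure; five concentrations; linearly interpolated endpoints. GI50 = concentration required for 50% inhibition of growth.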 Activity calls are given as the source filed them. Cut-off read from the data, not from the text of the source: active = GI50 up to about 1.1 µM and inactive = higher.

Test systems include SR; SW-620; HL-60; NCI-H460; EKVX; OVCAR-3; HCC 2998; MCF7; RXF 393; Hs-578T; SNB-75; SF-539; A549; UO-31; SK-MEL-5; SN12C; LOX IMVI; SK-MEL-2; 786-0; NCI/ADR-RES.
Common to all, as to test: NCI anticancer screen, dose series, 48 h

In the case of `Cc1ccc(C(=O)c2[nH]c(Nc3cc(C)ccn3)c(C(=S)Nc3ccccc3)c2N)cc1`, the GI50 in the experiment on SR, with SW-620, with HL-60, with NCI-H460, in the experiment on EKVX and with OVCAR-3 was > 100 µM (inactive) throughout. Besides, the GI50 in the experiment with HCC 2998 is > 100 µM (inactive); in the experiment on MCF7, 87.5 µM (inactive); with RXF 393, > 100 µM (inactive); with Hs-578T it was > 100 µM (inactive); in the experiment on SNB-75 it was > 100 µM (inactive); in the experiment with SF-539, > 100 µM (inactive). Further, the GI50 in the experiment on A549, in the experiment with UO-31, in the experiment with SK-MEL-5, with SN12C, with LOX IMVI and in the experiment with SK-MEL-2 was > 100 µM (inactive) each time. Moreover, the GI50 in the experiment with 786-0 and in the experiment with NCI/ADR-RES was > 100 µM (inactive) in each case.
Consider `CC1(C)C2CCC1(CS(=O)(=O)Nc1ccccc1)C(=O)C2` (stereo not given), for which the GI50 in the experiment on SR was 35.5 µM (inactive); with SW-620 it was > 100 µM (inactive); in the experiment on HL-60 it was > 100 µM (inactive); in the experiment on NCI-H460 it was > 100 µM (inactive); in the experiment on EKVX, > 100 µM (inactive); in the experiment on OVCAR-3 it was > 100 µM (inactive). In addition, the GI50 in the experiment with HCC 2998 is > 100 µM (inactive); in the experiment with MCF7 it was > 100 µM (inactive); in the experiment on RXF 393, > 100 µM (inactive); in the experiment with Hs-578T it was > 100 µM (inactive); with SNB-75, 89.9 µM (inactive); in the experiment with SF-539, > 100 µM (inactive). Besides, the GI50 in the experiment on A549 was > 100 µM (inactive); in the experiment on UO-31, 75.9 µM (inactive); in the experiment with SK-MEL-5 it was > 100 µM (inactive); in the experiment on SN12C, > 100 µM (inactive); in the experiment with LOX IMVI it was > 100 µM (inactive); with SK-MEL-2, > 100 µM (inactive). In addition, the GI50 with 786-0 and with NCI/ADR-RES was > 100 µM (inactive) throughout.
As to `CCCCCC(=O)OC[n+]1ccc2c(C)c3[nH]c4ccc(OC)cc4c3c(C)c2c1`, the GI50 was 0.0498 µM (active) in the experiment with SR; 0.0735 µM (active) with SW-620; 0.241 µM (active) in the experiment with HL-60; 0.0325 µM (active) in the experiment with NCI-H460; 0.925 µM (active) in the experiment on EKVX; > 100 µM (inactive) with OVCAR-3. For the same compound, the GI50 with HCC 2998 was 0.543 µM (active); in the experiment on MCF7, 0.225 µM (active); with RXF 393 it was 0.208 µM (active); in the experiment on Hs-578T, 1.11 µM (active); with SNB-75, 1.11 µM (active); in the experiment on SF-539, 0.238 µM (active). Further, the GI50 in the experiment on A549 is 0.284 µM (active); in the experiment with UO-31, 0.625 µM (active); in the experiment with SK-MEL-5, 1.57 µM (inactive); with SN12C, 0.117 µM (active); with LOX IMVI, 0.224 µM (active); in the experiment with SK-MEL-2, 1.61 µM (inactive). The figures for the GI50 with 786-0 and with NCI/ADR-RES were 0.0843 µM (active) and 0.213 µM (active), respectively.
In the case of `O=C1Nc2ccccc2/C1=C1/Nc2ccccc2/C1=N\OCCNCC(O)C(O)C(O)C(O)CO` (stereo not given), the GI50 is 9.55 µM (inactive) in the experiment with SR; 15.9 µM (inactive) in the experiment with SW-620; 5.5 µM (inactive) with HL-60; 18.1 µM (inactive) in the experiment with NCI-H460; 30.3 µM (inactive) in the experiment on EKVX; 11.6 µM (inactive) in the experiment on OVCAR-3. Further, the GI50 in the experiment with HCC 2998 is 11.8 µM (inactive); in the experiment on MCF7, 12.4 µM (inactive); in the experiment on RXF 393 it was 12.5 µM (inactive); in the experiment on Hs-578T, 13.4 µM (inactive); with SNB-75 it was 11 µM (inactive); in the experiment on SF-539, 14.1 µM (inactive). Further, the GI50 in the experiment on A549 is 44.4 µM (inactive); in the experiment with UO-31, > 50 µM (inactive); in the experiment with SK-MEL-5 it was 8.36 µM (inactive); with SN12C, 15.2 µM (inactive); with LOX IMVI, 8.53 µM (inactive); in the experiment with SK-MEL-2, 7.91 µM (inactive). The values for the GI50 in the experiment on 786-0 and with NCI/ADR-RES were 18.1 µM (inactive) and > 50 µM (inactive), respectively.

The values above are taken from ChEMBL document CHEMBL1201862, “PubChem BioAssay data set” (2004).
